What was measured:
[1] = Phospholipidosis assay (LipidTox); type: cell-based; settings: human
Method: (§1) More recently, fluorescent dyes have been utilized to assess phospholipidosis in a high throughput manner (Nioi et al., 2007, Toxicol. Sci. 99:162-173). In this assay, HepG2 cells are plated in MEM growth medium and allowed to incubate overnight. Cells are treated with test compounds that have been added to the assay medium (10% fetal bovine serum) containing LipidTox (fluorescent lipophilic dye). After 48 h incubation, cells are fixed and stained with Hoechst. Plates are scanned with an automated fluorescent microscope (Thermo Fisher Cellomics ArrayScan 4.5) and image analysis is used to quantitate cell number and phospholipid accumulation. Compounds are tested in triplicate at multiple concentrations. Three reference compounds, sertraline, perhexyline, and meclizine (high, medium, and low inducers of phospholipidosis, respectively) are included in each assay. The data is expressed as fold induction over background and the % of the positive control (sertraline), which is calculated using the following equation:
(§2) % positive control=100×(RFUcompound−RFUbackground)/(RFUsertaline−RFUbackground),
(§3) where RFU=Relative Fluorescence Unit

HepG2 cells = experiment: Phospholipidosis assay (LipidTox); type: cell-based
Method: as §1, §2, §3

[2] = test system: Serotonin (5-Hydroxytryptamine) 5-HT1, Non-Selective; experiment: Assay 271000 radioligand binding, 5-HT1 non-selective; set-up: species or system Wistar Rat
Method: (§4) The methods employed in this study have been adapted from the scientific literature to maximize reliability and reproducibility. Reference standards were run as an integral part of each assay to ensure the validity of the results obtained. Assays were performed under conditions as described below. Where presented, IC50 values were determined by a non-linear, least squares regression analysis using the Data Analysis Toolbox (MDL Information Systems, San Leandro, Calif., USA). Where inhibition constants (Ki) are presented, the Ki values were calculated using the equation of Cheng and Prusoff (Cheng, Y., Prusoff, W. H., Biochem. Pharmacol. 22:3099-3108, 1973) using the observed IC50 of the tested compound, the concentration of radioligand employed in the assay, and historical values for the KD of the ligand. Where presented, the Hill coefficient (nu), defining the slope of the competitive binding curve, was calculated using the Data Analysis Toolbox.

[3] = test system: Serotonin (5-Hydroxytryptamine) 5-HT2, Non-Selective; experiment: Assay 271600 radioligand binding, 5-HT2 non-selective; set-up: species or system Wistar Rat
Method: as §4

TNF-α = experiment: Model of LPS-mediated cytokine production, serum TNF-α; type: in vivo, CD1:ICR mice; settings: for TNFα inhibition, dose-response study: IP, up to a dose of 5 mg/kg
Method: Both ICI-685 and ICI-735 were formulated in water. For the time course study, both drugs were formulated at a concentration of 1 mg/ml and dosed 10 ml/kg to produce a dose of 10 mg/kg. For the dose-response study, drug was formulated at concentrations of 0.05, 0.2 and 0.5 mg/ml and dosed at a volume of 10 ml/kg to produce doses of 0.5, 2 and 5 mg/kg, respectively. Animals were dosed IV or IP.
CD1:ICR mice were obtained from Harlan (Indianapolis, Ind.) at 6 weeks of age. Animals were housed 5 per cage, kept on a 12 hr light dark cycle and fed food and water ad libitum. Animals were tested at 8-10 weeks of age.
Lipopolysaccharide (heat killed E. coli 0127:B5; Sigma Aldrich) was prepared in distilled water at a concentration of 0.025 mg/ml. LPS was dosed at a volume of 10 ml/kg (IP) to produce a final dose of 0.25 mg/kg (approximately 7.5 μg/mouse). Drugs were dosed prior to LPS administration as indicated elsewhere herein. Blood was collected by retro-orbital eye bleed 90 minutes after LPS administration, Serum was prepared from blood and TNF-α and IL-1β levels were measured by using the OPT-EIA mouse TNF-α and IL-1β ELISA kits (BD Biosciences) as per directions of the manufacturer.
The first study was designed to determine the optimal route of administration and the optimal pre-treatment time. Two pre-dose time course studies were conducted. The first (Study 1A) was conducted with 3 pre-dose time points (2, 6 and 18 hrs). The second was conducted at 0, 1 and 2 hr predose time points. For both studies, drug was dosed IP or IV.
Using data from the first study, a second study was conducted that was designed to measure dose-response activity of each compound. Compounds were tested at doses of […]., 2.0 and 5 mg/kg using the route and pre-treatment time that produced the best activity.
Compounds ICI-715, ICI-824, ICI-953 and ICI-954 were formulated in water. For the time course study, drugs were formulated at a concentration of 1 mg/ml and dosed 10 ml/kg to produce a dose of 10 mg/kg. For the dose-response study, drugs were formulated at concentrations of 0.05, 0.2 and 0.5 mg/ml and dosed at a volume of 10 ml/kg to produce doses of 0.5, 2 and 5 mg/kg, respectively. Animals were dosed IV or IP.
Lipopolysaccharide (heat killed E. coli 0127:B5; Sigma Aldrich) was prepared in distilled water at a concentration of 0.025 mg/ml, LPS was dosed at a volume of 10 ml/kg (IP) to produce a final dose of 0.25 mg/kg (approximately […]). Drugs were dosed prior to LPS administration as indicated above. Blood was collected by retro-orbital eye bleed 90 minutes after LPS administration. Serum was prepared from blood and TNF-α and IL-1β levels were measured by using the OPT-EIA mouse TNF-α and IL-1β ELISA kits (BD Biosciences) as per directions of the manufacturer.
The first study was designed to determine the optimal route of administration and the optimal pre-treatment time. One pre-dose time course was conducted (for all compounds) with compounds administered at 0, 1 and 2 hrs prior to LPS treatment. For both studies, drug was dosed IP or IV. The IP study and IV study were conducted on separate days.
Using data from the first study, a second study was conducted that was designed to measure dose-response activity of each compound. Compounds were tested at doses of 0.5, 2.0 and 5 mg/kg using the route and pre-treatment time that produced the best activity.

[4] = biological target: T1, Serotonin (5-Hydroxytryptamine) 5-HT1B (Rattus norvegicus, UniProt P28564); experiment: Assay 271200 radioligand binding, 5-HT1B; set-up: species or system Wistar Rat
T1 construct: from tissue
Method: as §4

[5] = biological target: T2, Serotonin (5-Hydroxytryptamine) 5-HT1A (Homo sapiens, UniProt P08908); experiment: Radioligand binding, 5-HT1A ([3H] 8-OH-DPAT)
T2 construct: expressed in transfected cells; host or cells: CHO cells
T2 sequence (P08908 1-422): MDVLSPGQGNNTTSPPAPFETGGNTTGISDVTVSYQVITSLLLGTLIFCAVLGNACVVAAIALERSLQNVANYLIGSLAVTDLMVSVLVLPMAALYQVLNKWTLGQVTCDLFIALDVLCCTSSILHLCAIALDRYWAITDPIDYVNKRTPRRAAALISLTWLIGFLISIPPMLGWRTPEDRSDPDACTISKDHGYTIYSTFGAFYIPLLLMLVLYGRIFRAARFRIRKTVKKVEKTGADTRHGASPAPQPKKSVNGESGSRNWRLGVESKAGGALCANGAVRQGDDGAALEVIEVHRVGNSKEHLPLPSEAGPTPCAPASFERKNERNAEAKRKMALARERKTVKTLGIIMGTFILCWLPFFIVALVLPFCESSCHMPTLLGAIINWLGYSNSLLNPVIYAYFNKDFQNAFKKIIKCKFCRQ
Method: as §4

T1 sequence (P28564 whole entry): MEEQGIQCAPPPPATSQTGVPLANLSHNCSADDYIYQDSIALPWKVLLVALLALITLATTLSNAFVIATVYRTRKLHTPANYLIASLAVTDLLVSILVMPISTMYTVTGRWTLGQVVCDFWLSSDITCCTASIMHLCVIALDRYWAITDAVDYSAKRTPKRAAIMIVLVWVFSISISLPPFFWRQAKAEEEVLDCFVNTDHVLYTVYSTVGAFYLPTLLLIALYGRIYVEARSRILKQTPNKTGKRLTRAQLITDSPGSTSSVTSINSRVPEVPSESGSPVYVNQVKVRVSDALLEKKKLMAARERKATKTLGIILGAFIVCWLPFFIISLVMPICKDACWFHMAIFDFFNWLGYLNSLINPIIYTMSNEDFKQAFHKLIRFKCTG

Compound	% INHIBITION ([2]; 0.1 μM) [%]	% INHIBITION ([2]; 10 μM) [%]	% INHIBITION ([3]; 0.1 μM) [%]	% INHIBITION ([3]; 10 μM) [%]	% INHIBITION ([4]; 0.1 μM) [%]	% INHIBITION ([4]; 10 μM) [%]	% INHIBITION ([5]; 0.1 μM) [%]	% INHIBITION ([5]; 10 μM) [%]	other results
O=CNCC(=O)NCCN1CCN(CCCN2c3ccccc3Sc3ccc(C(F)(F)F)cc32)CC1 [Compound 37b, 2-formamido-N-(2-(4-(3-(2-(trifluoromethyl)-10H-phenothiazin-10-yl)propyl)piperazin-1-yl)ethyl)acetamide]									cytotoxicity at 48 h, 1 µM [1]: 32%; cytotoxicity at 48 h, 3 µM [1]: 17%; cytotoxicity at 48 h, 10 µM [1]: 46%; cytotoxicity at 48 h, 30 µM [1]: 100%; fold induction at 48 h, 1 µM [1]: 1; fold induction at 48 h, 3 µM [1]: 4; fold induction at 48 h, 10 µM [1]: 12; cytotoxicity to HepG2 cells (HepG2 cells): less cytotoxicity; propensity to form phospholipidosis (HepG2 cells): lower propensity; % Positive Control (HepG2 cells; human, 48 h, 1 μM): 0.2%; % Positive Control (HepG2 cells; human, 48 h, 3 μM): 5.8%; % Positive Control (HepG2 cells; human, 48 h, 10 μM): 21.3%
NCC(=O)NCCN1CCN(CCCCN2c3ccccc3Sc3ccc(C(F)(F)F)cc32)CC1 [ICI-954]	−3	18	21	89	4	−1	6	56	TNFα inhibition, dose-response study (TNF-α): ineffective
Cc1cccc(CN2CCN(C(c3ccccc3)c3ccc(Cl)cc3)CC2)c1 (stereo not drawn) [Meclizine, meclizine, reference compound]									cytotoxicity at 48 h, 25 µM [1]: 0%; fold induction at 48 h, 25 µM [1]: 13; % Positive Control (HepG2 cells; human, 48 h, 25 μM): 24%
C1CCC(C(CC2CCCCN2)C2CCCCC2)CC1 (stereo not drawn) [Perhexil, perhexyline, reference compound]									% Cytotoxicity (HepG2 cells; 3 μM, 48 h): 10%; Fold Induction (HepG2 cells; 3 μM, 48 h): 38; % Positive Control (HepG2 cells; 3 μM, 48 h, positive control sertraline): 72%
CN[C@H]1CC[C@@H](c2ccc(Cl)c(Cl)c2)c2ccccc21 [Sertaline, sertraline, reference compound]									cytotoxicity at 48 h, 3 µM [1]: 15%; fold induction at 48 h, 3 µM [1]: 52; % Positive Control (HepG2 cells; human, 48 h, 3 μM): 100%

More lines, main results first:

% INHIBITION ([2]; 0.1 μM) [%]	% INHIBITION ([2]; 10 μM) [%]	% INHIBITION ([3]; 0.1 μM) [%]	% INHIBITION ([3]; 10 μM) [%]	% INHIBITION ([4]; 0.1 μM) [%]	% INHIBITION ([4]; 10 μM) [%]	% INHIBITION ([5]; 0.1 μM) [%]	% INHIBITION ([5]; 10 μM) [%]	Compound	other results
15	62	18	83					CN(C)S(=O)(=O)c1ccc2c(c1)N(CCCN1CCN(CCN)CC1)c1ccccc1S2 [ICI-715]	inhibition of TNFα (TNF-α; dose-response, all doses tested 0.5 to 5 mg/kg, IV): ≥ 50%; inhibition at 0.1 µM ([4]; 0.1 μM): 23%; inhibition at 10 µM ([4]; 10 μM): 90%; inhibition at 0.1 µM ([5]; 0.1 μM): 5%; inhibition at 10 µM ([5]; 10 μM): 87%
−14	11	28	84					FC(F)(F)c1ccc2c(c1)N(CCCC1CCNCC1)c1ccccc1S2 [ICI-824]	TNFα inhibition, dose-response study (TNF-α): ineffective; inhibition at 0.1 µM ([4]; 0.1 μM): 2%; inhibition at 10 µM ([4]; 10 μM): 6%; inhibition at 0.1 µM ([5]; 0.1 μM): 2%; inhibition at 10 µM ([5]; 10 μM): 53%
−2	10	15	85					CNCC(=O)NCCN1CCC(CCCN2c3ccccc3Sc3ccc(C(F)(F)F)cc32)CC1 [ICI-849]	inhibition at 0.1 µM ([4]; 0.1 μM): -7%; inhibition at 10 µM ([4]; 10 μM): -2%; inhibition at 0.1 µM ([5]; 0.1 μM): 18%; inhibition at 10 µM ([5]; 10 μM): 65%
−10	−1	16	71	7	2	5	54	NCCN1CCN(CCCCN2c3ccccc3Sc3ccc(C(F)(F)F)cc32)CC1 [ICI-953]	TNFα inhibition, dose-response study (TNF-α): ineffective
−12	24	51	87	8	48	2	48	FC(F)(F)c1ccc2c(c1)N(CCC1CCNCC1)c1ccccc1S2 [ICI-1007]	
−20	3	38	94	−3	0	4	69	NCCN1CCC(CCN2c3ccccc3Sc3ccc(C(F)(F)F)cc32)CC1 [ICI-1008]	

Reference: patent US20120035161A1, “Novel Compositions and Methods of Treating Diseases Using the Same” (CORRIDOR PHARMACEUTICALS, INC., priority 2006, published 2012)
